Results reported in patent US4248887A, “Antibacterial compounds, processes for their preparation and compositions containing them” (priority 1978, dated 1981).
In brackets after ≈: the same amount, converted by molar mass. Read-outs that look alike come from different tables or passages of the source.

Columns and labels:
Strep. uberis SPU1 = experiment: MIC against veterinary bacteria; conditions: Streptococcus uberis
M. hyorhinis ATCC 23234 = experiment: Anti-mycoplasma MIC; type: cell-based; conditions: Mesomycoplasma hyorhinis, ATCC23234
Strep. pyogenes B 2788 = experiment: MIC by serial dilution in nutrient agar (human bacteria); conditions: Streptococcus pyogenes, B2788
B. subtilis = experiment: as above; conditions: Bacillus subtilis
Staph. aureus Russell = experiment: as above; conditions: Staphylococcus aureus
Bord. bronchiseptica BO9 = experiment: MIC against veterinary bacteria; conditions: Bordetella bronchiseptica
[1] = test system: M. alkalescens NCTC 10135; experiment: Anti-mycoplasma MIC; type: cell-based
M. dispar H225 = experiment: Anti-mycoplasma MIC; type: cell-based
M. pulmonis JB = experiment: Anti-mycoplasma MIC; type: cell-based; conditions: Mycoplasmopsis pulmonis
M. bovis NCTC 10131 = experiment: microbe, parasite or virus in culture; type: cell-based; conditions: NCTC10131
M. pneumoniae 427a = experiment: Anti-mycoplasma MIC; type: cell-based; conditions: Mycoplasmoides pneumoniae
Bord. bronchiseptica BO8 = experiment: MIC against veterinary bacteria; conditions: Bordetella bronchiseptica
Past. haemolytica PA5 = experiment: MIC against veterinary bacteria; conditions: Mannheimia haemolytica
M. suipneumoniae Str. 11 = experiment: Anti-mycoplasma MIC; type: cell-based; conditions: Mesomycoplasma hyopneumoniae
M. dispar NCTC 10125 = experiment: Anti-mycoplasma MIC; type: cell-based
Past. multocida PA1 = experiment: MIC against veterinary bacteria; conditions: Pasteurella multocida
[2] = test system: M. bovigenitalium ATCC 14173; experiment: Anti-mycoplasma MIC; type: cell-based
Strep. pneumoniae CN33 = experiment: MIC by serial dilution in nutrient agar (human bacteria); conditions: Streptococcus pneumoniae
N. catarrhalis 1502 = experiment: as above; conditions: Neisseria
[3] = test system: Staph. aureus 152 (pen sensitive); experiment: MIC against veterinary bacteria; conditions: Staphylococcus aureus
M. gallisepticum S6 = experiment: Anti-mycoplasma MIC; type: cell-based; conditions: Mycoplasmoides gallisepticum
M. pneumoniae ATCC 15492 = experiment: Anti-mycoplasma MIC; type: cell-based; conditions: Mycoplasmoides pneumoniae, ATCC15492, M. pneumoniae ATCC 15492
Strep. dysgalactiae SPD1 = experiment: MIC against veterinary bacteria; conditions: Streptococcus dysgalactiae
Staph. aureus Oxford = experiment: MIC by serial dilution in nutrient agar (human bacteria); conditions: Staphylococcus aureus
Strep. pyogenes A 64/848 = experiment: as above; conditions: Streptococcus pyogenes, A64/848
Strep. pyogenes C 2761 = experiment: as above; conditions: Streptococcus pyogenes, C2761
Past. multocida 1633 = experiment: as above; conditions: Pasteurella multocida
[4] = test system: M. arthritidis ATCC 14124; experiment: Anti-mycoplasma MIC; type: cell-based
H. influenzae Q1 = experiment: MIC by serial dilution in nutrient agar (human bacteria); conditions: Haemophilus influenzae
[5] = test system: Staph. aureus B4 (pen resistant); experiment: MIC against veterinary bacteria; conditions: Staphylococcus aureus
Past. multocida PA2 = experiment: MIC against veterinary bacteria; conditions: Pasteurella multocida
M. bovis ATCC 25025 = experiment: microbe, parasite or virus in culture; type: cell-based; conditions: ATCC25025
[6] = test system: M. hyosynoviae ATCC 25591; experiment: Anti-mycoplasma MIC; type: cell-based
[7] = test system: M. suipneumoniae J2206/183b; experiment: Anti-mycoplasma MIC; type: cell-based; conditions: Mesomycoplasma hyopneumoniae
M. fermentans MWKL4 = experiment: Anti-mycoplasma MIC; type: cell-based; conditions: Mycoplasmopsis fermentans
Strep. agalactiae SPA1 = experiment: MIC against veterinary bacteria; conditions: Streptococcus agalactiae
M. synoviae ATCC 25204 = experiment: Anti-mycoplasma MIC; type: cell-based; conditions: Mycoplasmopsis synoviae, ATCC25204
H. influenzae Wy21 = experiment: MIC by serial dilution in nutrient agar (human bacteria); conditions: Haemophilus influenzae
Staph. aureus 1517 = experiment: as above; type: cell-based; conditions: Staphylococcus aureus
[8] = Agar (serial dilution in Friis' agar), read-out: MIC
[9] = Broth (Friis' broth, microtiter method), read-out: MIC
[10] = Agar (serial dilution in Friis' agar)
[11] = Broth (Friis' broth, microtiter method)

Work on `C=CCOC(=O)/C=C(\C)CC1OCC(C/C=C/C(C)C(C)O)C(O)C1O` (centres unmarked) [Allyl, Allyl Monate C] yielded an MIC (Strep. uberis SPU1) of 1.25 µg/mL (≈ 3.39 µM), an MIC (M. hyorhinis ATCC 23234; M. hyorhinis ATCC 23234, Agar (serial dilution in Friis' agar), read-out: MIC) of 2.5 µg/mL (≈ 6.78 µM) and an MIC (Strep. pyogenes B 2788) of 2.5 µg/mL (≈ 6.78 µM). For the same compound, the MIC (B. subtilis) was 1 µg/mL (≈ 2.71 µM), the MIC (Staph. aureus Russell) was 1 µg/mL (≈ 2.71 µM) and the MIC (Bord. bronchiseptica BO9) was 40 µg/mL (≈ 109 µM). For the same compound, the MIC ([1]; M. alkalescens NCTC 10135, Agar (serial dilution in Friis' agar), read-out: MIC) was 0.078 µg/mL (≈ 0.212 µM), the MIC (M. dispar H225; M. dispar H225, Broth (Friis' broth, microtiter method), read-out: MIC) was 0.078 µg/mL (≈ 0.212 µM) and the MIC (M. pulmonis JB; [8]) was 0.156 µg/mL (≈ 0.423 µM). For the same compound, the MIC (M. pulmonis JB; [9]) was 0.039 µg/mL (≈ 0.106 µM), the MIC (M. bovis NCTC 10131) was 0.078 µg/mL (≈ 0.212 µM) and the MIC (M. pneumoniae 427a; [8]) was 5 µg/mL (≈ 13.6 µM). For the same compound, the MIC (M. pneumoniae 427a; [9]) was 10 µg/mL (≈ 27.1 µM), the MIC (Bord. bronchiseptica BO8) was > 80 µg/mL and the MIC (Past. haemolytica PA5) was 20 µg/mL (≈ 54.3 µM). The MIC (M. suipneumoniae Str. 11; M. suipneumoniae Str. 11, Broth (Friis' broth, microtiter method), read-out: MIC) was 0.312 µg/mL (≈ 0.847 µM), the MIC (M. dispar NCTC 10125; M. dispar NCTC 10125, Broth (Friis' broth, microtiter method), read-out: MIC) was 0.156 µg/mL (≈ 0.423 µM) and the MIC (Past. multocida PA1) was 2.5 µg/mL (≈ 6.78 µM). It also gave an MIC ([2]; M. bovigenitalium ATCC 14173, Agar (serial dilution in Friis' agar), read-out: MIC) of 0.078 µg/mL (≈ 0.212 µM), an MIC (Strep. pneumoniae CN33) of 2.5 µg/mL (≈ 6.78 µM) and an MIC (N. catarrhalis 1502) of 0.05 µg/mL (≈ 0.136 µM). The MIC [3] was 0.625 µg/mL (≈ 1.7 µM), the MIC (M. gallisepticum S6; M. gallisepticum S6, Agar (serial dilution in Friis' agar), read-out: MIC) was > 10 µg/mL and the MIC (M. pneumoniae ATCC 15492; [8]) was 10 µg/mL (≈ 27.1 µM). For the same compound, the MIC (M. pneumoniae ATCC 15492; [9]) was 10 µg/mL (≈ 27.1 µM), the MIC (Strep. dysgalactiae SPD1) was 5 µg/mL (≈ 13.6 µM) and the MIC (Staph. aureus Oxford) was 0.1 µg/mL (≈ 0.271 µM). The MIC (Strep. pyogenes A 64/848) was 2.5 µg/mL (≈ 6.78 µM), the MIC (Strep. pyogenes C 2761) was 10 µg/mL (≈ 27.1 µM) and the MIC (Past. multocida 1633) was 2.5 µg/mL (≈ 6.78 µM). The MIC ([4]; M. arthritidis ATCC 14124, Agar (serial dilution in Friis' agar), read-out: MIC) was > 10 µg/mL, the MIC (H. influenzae Q1) was 0.5 µg/mL (≈ 1.36 µM) and the MIC [5] was 0.625 µg/mL (≈ 1.7 µM). For the same compound, the MIC (Past. multocida PA2) was 0.312 µg/mL (≈ 0.847 µM), the MIC (M. bovis ATCC 25025) was 0.078 µg/mL (≈ 0.212 µM) and the MIC ([6]; M. hyosynoviae ATCC 25591, Agar (serial dilution in Friis' agar), read-out: MIC) was 1.25 µg/mL (≈ 3.39 µM). The MIC ([7]; M. suipneumoniae J2206/183b, Broth (Friis' broth, microtiter method), read-out: MIC) was 1.25 µg/mL (≈ 3.39 µM), the MIC (M. fermentans MWKL4; [8]) was 0.156 µg/mL (≈ 0.423 µM) and the MIC (M. fermentans MWKL4; [9]) was 0.039 µg/mL (≈ 0.106 µM). It also gave an MIC (Strep. agalactiae SPA1) of 5 µg/mL (≈ 13.6 µM) and an MIC (M. synoviae ATCC 25204; M. synoviae ATCC 25204, Agar (serial dilution in Friis' agar), read-out: MIC) of 0.039 µg/mL (≈ 0.106 µM).

For `COC(=O)/C=C(\C)CC1OCC(C/C=C/C(C)C(C)O)C(O)C1O` (centres unmarked) [Methyl, Methyl Monate C], the MIC (M. hyorhinis ATCC 23234) was 1.25 µg/mL (≈ 3.65 µM), the MIC (Strep. pyogenes B 2788) was 25 µg/mL (≈ 73 µM) and the MIC (B. subtilis) was 2.5 µg/mL (≈ 7.3 µM). It also gave an MIC (Staph. aureus Russell) of 2.5 µg/mL (≈ 7.3 µM), an MIC [1] of 0.156 µg/mL (≈ 0.456 µM) and an MIC (M. dispar H225) of 0.625 µg/mL (≈ 1.83 µM). The MIC (M. pulmonis JB; [10]) was 0.312 µg/mL (≈ 0.911 µM), the MIC (M. pulmonis JB; [11]) was 0.156 µg/mL (≈ 0.456 µM) and the MIC (M. bovis NCTC 10131) was 0.312 µg/mL (≈ 0.911 µM). For the same compound, the MIC (M. pneumoniae 427a; [10]) was > 10 µg/mL, the MIC (M. pneumoniae 427a; [11]) was > 10 µg/mL and the MIC (M. suipneumoniae Str. 11; STR.11) was 2.5 µg/mL (≈ 7.3 µM). It also gave an MIC (M. dispar NCTC 10125) of 0.312 µg/mL (≈ 0.911 µM), an MIC [2] of 0.156 µg/mL (≈ 0.456 µM) and an MIC (Strep. pneumoniae CN33) of 25 µg/mL (≈ 73 µM). The MIC (N. catarrhalis 1502) was 1 µg/mL (≈ 2.92 µM), the MIC (H. influenzae Wy21) was 2.5 µg/mL (≈ 7.3 µM) and the MIC (M. gallisepticum S6; S6) was > 10 µg/mL. The MIC (M. pneumoniae ATCC 15492; [10]) was > 10 µg/mL, the MIC (M. pneumoniae ATCC 15492; [11]) was 10 µg/mL (≈ 29.2 µM) and the MIC (Staph. aureus Oxford) was 1 µg/mL (≈ 2.92 µM). The MIC (Strep. pyogenes A 64/848) was > 100 µg/mL, the MIC (Strep. pyogenes C 2761) was > 100 µg/mL and the MIC (Past. multocida 1633) was 10 µg/mL (≈ 29.2 µM). For the same compound, the MIC [4] was > 10 µg/mL, the MIC (H. influenzae Q1) was 1 µg/mL (≈ 2.92 µM) and the MIC (Staph. aureus 1517) was 2.5 µg/mL (≈ 7.3 µM). For the same compound, the MIC (M. bovis ATCC 25025) was 0.312 µg/mL (≈ 0.911 µM), the MIC [6] was 5 µg/mL (≈ 14.6 µM) and the MIC ([7]; J2206/183B) was 2.5 µg/mL (≈ 7.3 µM). For the same compound, the MIC (M. fermentans MWKL4; [10]) was 0.625 µg/mL (≈ 1.83 µM), the MIC (M. fermentans MWKL4; [11]) was 0.312 µg/mL (≈ 0.911 µM) and the MIC (M. synoviae ATCC 25204) was 0.156 µg/mL (≈ 0.456 µM).
